Measurements published in paper PMC10528180 (Foods, 2023).

What was measured:
α-amylase [1] = biological target: T1, α-amylase (Sus scrofa, UniProt P00690); assay: Inhibition kinetic analysis (Lineweaver-Burk) on α-amylase; type: biochemical, porcine; set-up: Vmax α-amylase: unit not given beside the values
T1 construct: α-amylase (EC 232-565-6, powder, ≥5 units/mg solid) isolated from porcine pancreas; purchased Sigma-Aldrich Co; host or cells: porcine pancreas
T1 sequence (P00690 16-511): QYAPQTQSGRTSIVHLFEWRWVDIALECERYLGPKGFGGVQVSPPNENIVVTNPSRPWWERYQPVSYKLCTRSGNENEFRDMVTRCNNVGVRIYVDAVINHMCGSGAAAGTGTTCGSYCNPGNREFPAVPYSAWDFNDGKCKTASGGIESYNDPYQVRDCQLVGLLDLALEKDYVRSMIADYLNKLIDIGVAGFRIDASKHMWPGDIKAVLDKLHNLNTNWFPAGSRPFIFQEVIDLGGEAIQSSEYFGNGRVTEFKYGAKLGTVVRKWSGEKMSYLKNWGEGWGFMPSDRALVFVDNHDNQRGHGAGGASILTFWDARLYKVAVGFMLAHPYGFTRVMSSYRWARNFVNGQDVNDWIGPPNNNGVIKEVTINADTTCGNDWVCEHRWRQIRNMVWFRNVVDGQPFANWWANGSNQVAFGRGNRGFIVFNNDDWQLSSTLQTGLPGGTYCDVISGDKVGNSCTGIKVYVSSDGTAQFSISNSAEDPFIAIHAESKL
Procedure: The reactions of a series of compounds with substrates pNαPG and G3-CNP were tested using the Lineweaver–Burk expression in Equation (1) to calculate the maximum velocity (Vmax) and Michaelis–Menten constant (Km) values. (1) 1/v=Km/Vmax1/[S]+1/Vmax, where Vmax and Km are the maximum velocity of the enzyme and the Michaelis–Menten constant without inhibitor, respectively. [S] is the concentrations of the substrate and inhibitor.

α-amylase [2] = biological target: T1, α-amylase; assay: Fluorescence quenching experiment with α-amylase (Stern-Volmer, double logarithmic, Van 't Hoff); type: binding, porcine; details: for Kd: Ka (binding constant) α-amylase
Excerpt: Based on the previously described techniques, the fluorescence quenching experiment was somewhat modified. […] The 5.0 nm excitation and emission slit widths were predetermined.
(§1) The drop in fluorescence intensity brought on by the interaction of the quencher and the fluorescence group is what causes dynamic quenching. When the collision between the quencher and the fluorescence group intensifies as the temperature rises, the quenching constant rises. The quenching mechanism of the enzyme was further studied using the Stern–Volmer equation:(2) F0/F=1+Kqτ0Q=1+Ksv[Q], where Kq is the bimolecular quenching constant, F0 represents the fluorescence intensity of starch-digesting enzymes in the absence of inhibitors, F represents the fluorescence intensity of starch-digesting enzymes in the presence of inhibitors, and τ0 is the lifetime of the fluorophore in protein (about 10^−8 s).
By calculating the thermodynamic parameters of the quenching process, the binding affinity and the main force of the reaction process were evaluated. […] The thermodynamic parameters ΔH, ΔS, and ΔG represent enthalpy change, entropy change, and free energy change, respectively. […] The interaction forces in the reaction process can be roughly divided into four types: hydrophobic interaction, hydrogen bonding, electrostatic interaction, and van der Waals interaction.

α-glucosidase = biological target: T2, α-glucosidase (Saccharomyces cerevisiae, UniProt P53341); assay: Fluorescence quenching experiment with α-glucosidase (Stern-Volmer, double logarithmic, Van 't Hoff); type: binding; details: for Kd: Ka (binding constant) α-glucosidase
T2 construct: purchased Sigma-Aldrich Co
Procedure: Based on the previously described techniques, the fluorescence quenching experiment was somewhat modified. […] The reaction solution’s fluorescence intensity was measured in a quartz colorimetric dish using a fluorescence spectrometer (F-7100, Tokyo, Japan) at wavelengths ranging from 295 to 500 nm (emission wavelength) and 280 nm ([…]) (1.0 cm path length). The 5.0 nm excitation and emission slit widths were predetermined.
as §1, with “By determining the quenching constant, it is possible to discriminate between dynamic and static protein fluorescence quenching caused by compounds [39]. […] With the increase in temperature, the binding of the complex is unstable, so the quenching constant decreases. The drop” for “The drop”
By calculating the thermodynamic parameters of the quenching process, the binding affinity and the main force of the reaction process were evaluated. The thermodynamic parameters are calculated using the Van ’t Hoff equation:(4) lnKa=−△H/RT+△S/R. (5) △G=△H−T△S. where Ka is the binding constant, R is the universal gas constant, and T represents the test temperature (300.15 K, 305.15 K, 310.15 K). The thermodynamic parameters ΔH, ΔS, and ΔG represent enthalpy change, entropy change, and free energy change, respectively. […] The interaction forces in the reaction process can be roughly divided into four types: hydrophobic interaction, hydrogen bonding, electrostatic interaction, and van der Waals interaction.

T2 sequence (P53341 whole entry): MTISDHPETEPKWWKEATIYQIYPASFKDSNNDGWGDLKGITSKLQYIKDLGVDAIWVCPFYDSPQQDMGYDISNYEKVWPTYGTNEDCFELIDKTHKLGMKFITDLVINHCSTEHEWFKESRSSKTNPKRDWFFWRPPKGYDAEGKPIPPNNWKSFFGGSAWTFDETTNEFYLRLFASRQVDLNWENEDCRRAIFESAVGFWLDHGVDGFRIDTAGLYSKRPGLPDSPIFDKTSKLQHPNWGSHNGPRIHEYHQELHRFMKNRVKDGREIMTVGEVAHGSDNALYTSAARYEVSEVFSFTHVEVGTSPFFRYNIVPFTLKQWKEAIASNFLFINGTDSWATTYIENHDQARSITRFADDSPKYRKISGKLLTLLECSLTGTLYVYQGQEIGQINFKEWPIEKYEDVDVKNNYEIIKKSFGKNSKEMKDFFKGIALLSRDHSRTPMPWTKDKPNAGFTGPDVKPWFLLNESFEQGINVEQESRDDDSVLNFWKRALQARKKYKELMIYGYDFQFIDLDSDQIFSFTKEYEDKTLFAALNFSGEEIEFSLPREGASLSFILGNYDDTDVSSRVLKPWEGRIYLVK

SMILES: O=c1c(O)c(-c2ccc(O)c(O)c2)oc2cc(O[C@@H]3O[C@H](CO)[C@@H](O)[C@H](O)[C@H]3O)cc(O)c12 [Quercimeritrin]
- inhibition mode on α-amylase (α-amylase [1]; Lineweaver-Burk diagram): competitive inhibition
- Vmax α-amylase (α-amylase [1]; [I] 15.6 μM): 0.0521
- Vmax α-amylase (α-amylase [1]; [I] 31.3 μM): 0.0532
- Vmax α-amylase (α-amylase [1]; [I] 62.5 μM): 0.0522
- Vmax α-amylase (α-amylase [1]; [I] 125 μM): 0.0526
- Vmax α-amylase (α-amylase [1]; [I] 250 μM): 0.0503
- Vmax α-amylase (α-amylase [1]; [I] 500 μM): 0.0508
- fluorescence quenching mechanism, α-amylase (α-amylase [2]): static quenching
- Kd (α-amylase [2]; T 300.15 K): 15.2 µM
- Kd (α-amylase [2]; T 305.15 K): 28.6 µM
- Kd (α-amylase [2]; T 310.15 K): 38.5 µM
- Ksv (quenching constant) α-amylase (α-amylase [2]; T 300.15 K): 0.13 ±0.03 10^5 /M
- n (number of binding sites) α-amylase (α-amylase [2]; T 300.15 K): 1.20
- Ksv (quenching constant) α-amylase (α-amylase [2]; T 305.15 K): 0.15 ±0.02 10^5 /M
- n (number of binding sites) α-amylase (α-amylase [2]; T 305.15 K): 1.10
- Ka (binding constant) α-amylase (α-amylase [2]; T 310.15 K): 0.26 ± 0.01 10^5 /M
- Ksv (quenching constant) α-amylase (α-amylase [2]; T 310.15 K): 0.18 ±0.04 10^5 /M
- n (number of binding sites) α-amylase (α-amylase [2]; T 310.15 K): 1.04
- ΔH α-amylase (α-amylase [2]; Van 't Hoff, 300.15-310.15 K): -3.37 ± 0.93 kcal/mol
- ΔS α-amylase (α-amylase [2]; Van 't Hoff, 300.15-310.15 K): -153.31 ±34.89 J/mol/K
- n (number of binding sites) α-amylase (α-amylase [2]; text summary over temperatures): ~1
- fluorescence quenching mechanism, α-glucosidase (α-glucosidase): static quenching
- Kd (α-glucosidase; T 300.15 K): 1.15 µM
- Kd (α-glucosidase; T 305.15 K): 9.62 µM
- Kd (α-glucosidase; T 310.15 K): 24.4 µM
- Ksv (quenching constant) α-glucosidase (α-glucosidase; T 300.15 K): 0.17 ±0.03 10^5 /M
- n (number of binding sites) α-glucosidase (α-glucosidase; T 300.15 K): 1.35
- ΔG α-glucosidase (α-glucosidase; T 300.15 K): -8.15 ± 2.22 kcal/mol
- Ksv (quenching constant) α-glucosidase (α-glucosidase; T 305.15 K): 0.19 ±0.02 10^5 /M
- n (number of binding sites) α-glucosidase (α-glucosidase; T 305.15 K): 1.20
- ΔG α-glucosidase (α-glucosidase; T 305.15 K): -7 ± 2.24 kcal/mol
- Ka (binding constant) α-glucosidase (α-glucosidase; T 310.15 K): 0.41 ± 0.06 10^5 /M
- Ksv (quenching constant) α-glucosidase (α-glucosidase; T 310.15 K): 0.21 ±0.04 10^5 /M
- n (number of binding sites) α-glucosidase (α-glucosidase; T 310.15 K): 1.09
- ΔG α-glucosidase (α-glucosidase; T 310.15 K): -6.55 ± 1.87 kcal/mol
- ΔH α-glucosidase (α-glucosidase; Van 't Hoff, 300.15-310.15 K): -56.6 ± 5.598 kcal/mol
- ΔS α-glucosidase (α-glucosidase; Van 't Hoff, 300.15-310.15 K): -677.34 ±87.38 J/mol/K
- n (number of binding sites) α-glucosidase (α-glucosidase; text summary over temperatures): ~1
